These results are taken from ChEMBL document CHEMBL1144819, “Antitumor agents. 261. 20(S)-protopanaxadiol and 20(s)-protopanaxatriol as antiangiogenic agents and total assignment of (1)H NMR spectra” (J Nat Prod, 2008).

A word on the EC50: it is the concentration at which the effect is half-maximal. Lower therefore signals a more potent agent.

Assay [1] relates to HUVEC. Put plainly: Antiproliferative activity against HUVEC cells after 72 hrs. The format is functional, cell-based. The following applies: Homo sapiens.
Assay [2] deals with HUVEC. As to the kind of experiment: Cell viability of HUVEC cells at 20 ug/ml. The format is functional, Homo sapiens.

In brackets after ≈: the same amount, converted by molar mass.

With `CC(C)=CCC[C@](C)(O)[C@H]1CC[C@]2(C)[C@@H]1[C@H](O)C[C@@H]1[C@@]3(C)CC[C@H](O)C(C)(C)[C@@H]3[C@@H](O)C[C@]12C`, the midpoint of the response in assay [1], the EC50, lay at 6.64 µg/mL (≈ 13.9 µM). Also, the Activity in assay [2] is reported as 16.5%.

As for `CC(C)=CCC[C@](C)(O)[C@H]1CC[C@]2(C)[C@@H]1[C@H](O)C[C@@H]1[C@@]3(C)CC[C@H](O)C(C)(C)[C@@H]3CC[C@]12C`, in assay [1], the EC50 was 2.16 µg/mL (≈ 4.69 µM). Moreover, the Activity in assay [2] is 16.5%.
